# Experimental data reported in patent publication US8916551B2, “Heterocyclic compound and use thereof” (Takeda Pharmaceutical Company Limited, priority 2010, dated 2014).
# Tests used:
# [1] = target: T1, AMPA receptor (human GluR1 flip/stargazin expressed in CHO-K1 cells) (Homo sapiens, UniProt P42261); test: AMPA receptor function enhancing activity using calcium influx as index; type: cell-based; settings: 100% = 3 mM glutamic acid + 300 μM cyclothiazide, 0% = 3 mM glutamic acid only
# T1 construct: expressed in transfected cells; host or cells: CHO-K1
# T1 sequence (P42261 19-906 isoform P42261-2 limits assumed): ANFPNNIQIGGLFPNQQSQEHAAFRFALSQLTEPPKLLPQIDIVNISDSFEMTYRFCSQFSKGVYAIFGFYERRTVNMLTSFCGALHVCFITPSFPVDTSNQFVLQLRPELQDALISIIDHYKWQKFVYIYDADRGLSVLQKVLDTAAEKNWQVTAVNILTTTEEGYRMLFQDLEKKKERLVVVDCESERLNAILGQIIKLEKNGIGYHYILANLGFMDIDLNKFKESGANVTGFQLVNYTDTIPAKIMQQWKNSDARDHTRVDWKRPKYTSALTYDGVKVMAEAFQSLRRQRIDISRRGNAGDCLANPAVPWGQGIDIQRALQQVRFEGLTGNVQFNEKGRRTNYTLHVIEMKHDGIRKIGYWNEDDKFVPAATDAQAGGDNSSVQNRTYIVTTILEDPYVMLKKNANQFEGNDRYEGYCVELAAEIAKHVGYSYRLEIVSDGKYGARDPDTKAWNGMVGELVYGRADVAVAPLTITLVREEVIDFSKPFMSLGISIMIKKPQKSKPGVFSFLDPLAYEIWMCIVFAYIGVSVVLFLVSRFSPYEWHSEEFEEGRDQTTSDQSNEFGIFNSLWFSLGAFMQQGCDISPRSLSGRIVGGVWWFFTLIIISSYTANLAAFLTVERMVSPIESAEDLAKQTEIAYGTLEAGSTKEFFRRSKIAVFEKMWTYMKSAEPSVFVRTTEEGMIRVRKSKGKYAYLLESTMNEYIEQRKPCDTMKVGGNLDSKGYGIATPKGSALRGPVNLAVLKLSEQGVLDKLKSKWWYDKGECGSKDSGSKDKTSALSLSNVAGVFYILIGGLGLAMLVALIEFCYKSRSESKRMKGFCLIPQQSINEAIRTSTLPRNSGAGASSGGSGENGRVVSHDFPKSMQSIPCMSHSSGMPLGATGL
# T1 sequence (Q9Y698 whole entry partner): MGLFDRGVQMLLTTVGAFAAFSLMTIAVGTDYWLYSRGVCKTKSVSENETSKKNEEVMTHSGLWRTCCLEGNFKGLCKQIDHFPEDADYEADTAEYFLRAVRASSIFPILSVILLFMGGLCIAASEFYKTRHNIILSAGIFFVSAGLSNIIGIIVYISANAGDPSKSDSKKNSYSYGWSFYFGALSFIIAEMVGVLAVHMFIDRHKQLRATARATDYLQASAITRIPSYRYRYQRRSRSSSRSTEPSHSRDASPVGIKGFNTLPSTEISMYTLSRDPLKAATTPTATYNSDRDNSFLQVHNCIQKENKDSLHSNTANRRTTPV
# How it was run: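 CHO-K1 clone stably co-expressing human GluR1 flip and stargazin, loaded with Calcium 4 dye plus probenecid. Compound at 30 μM was added with glutamate (3 mM final) and fluorescence change followed over 3 min. Activity is expressed as % of the 3 mM glutamate plus 300 μM cyclothiazide response, with glutamate alone as 0%.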
# [2] = test compound 30 μM with 3 mM glutamic acid, change in fluorescence level in 3 min
# [3] = test compound 30 μM with glutamic acid final 3 mM, change in fluorescence in 3 min
"activity (%) [1, 2] [%]","activity (%) [1, 3] [%]",SMILES,further results
,,"O=S1(=O)CCN2C=CC=C(c3ccc(Oc4ccccc4)cc3)C2=N1 [Example 167, 9-(4-phenoxyphenyl)-3,4-dihydropyrido[2,1-c][1,2,4]thiadiazine 2,2-dioxide]",melting point: 253 to 255 °C
,,"O=S1(=O)CCN2CCCC(c3ccc(Oc4ccc(C(F)(F)F)cc4)cc3)C2=N1 (stereo not drawn) [Example 233, 9-{4-[4-(trifluoromethyl)phenoxy]phenyl}-3,4,6,7,8,9-hexahydropyrido[2,1-c][1,2,4]thiadiazine 2,2-dioxide]",melting point: 177 to 179 °C
,,"O=S1(=O)CCN2C=CC=C(c3ccc(-c4ccccc4)s3)C2=N1 [Example 50, 9-(5-phenylthiophen-2-yl)-3,4-dihydropyrido[2,1-c][1,2,4]thiadiazine 2,2-dioxide]",melting point: 241 to 242 °C
90,,"CC(F)(F)c1cccc(Oc2ccc(C3CCCN4CCS(=O)(=O)N=C34)cc2)c1 (stereo not drawn) [Example 159, 9-{4-[3-(1,1-difluoroethyl)phenoxy]phenyl}-3,4,6,7,8,9-hexahydropyrido[2,1-c][1,2,4]thiadiazine 2,2-dioxide]",
84,,"CC(F)(F)c1ccc(Oc2ccc(C3CCCN4CCS(=O)(=O)N=C34)cc2)cc1 (stereo not drawn) [Example 235, 9-{4-[4-(1,1-difluoroethyl)phenoxy]phenyl}-3,4,6,7,8,9-hexahydropyrido[2,1-c][1,2,4]thiadiazine 2,2-dioxide]",
76,,"O=C1CCC(Oc2ccc(C3=CC=CN4CCS(=O)(=O)N=C34)cc2)CC1 [Example 244, 4-[4-(2,2-dioxido-3,4-dihydropyrido[2,1-c][1,2,4]thiadiazin-9-yl)phenoxy]cyclohexanone]",
87,,"O=S1(=O)CCN2CCCC(Oc3ccc4c(c3)CCCC4)C2=N1 (stereo not drawn) [Example 238, 9-(5,6,7,8-tetrahydronaphthalen-2-yloxy)-3,4,6,7,8,9-hexahydropyrido[2,1-c][1,2,4]thiadiazine 2,2-dioxide]",
,71,"COc1cccc(Oc2ccc(C3CCCN4CCS(=O)(=O)N=C34)cc2)c1 (stereo not drawn) [Example 98, 9-[4-(3-methoxyphenoxy)phenyl]-3,4,6,7,8,9-hexahydropyrido[2,1-c][1,2,4]thiadiazine 2,2-dioxide]",
,86,"O=S1(=O)CCN2CCCC(c3ccc(-c4ccccc4)c(F)c3)C2=N1 (stereo not drawn) [Example 97, 9-(2-fluorobiphenyl-4-yl)-3,4,6,7,8,9-hexahydropyrido[2,1-c][1,2,4]thiadiazine 2,2-dioxide]",
90,,"CCCCn1ccc2cc(C3=CC=CN4CCS(=O)(=O)N=C34)ccc21 [Example 292, 9-(1-butyl-1H-indol-5-yl)-3,4-dihydropyrido[2,1-c][1,2,4]thiadiazine 2,2-dioxide]",
75,,"COc1cc(Oc2ccc(C3=CC=CN4CCS(=O)(=O)N=C34)cc2)ccc1Cl [Example 154, 9-[4-(4-chloro-3-methoxyphenoxy)phenyl]-3,4-dihydropyrido[2,1-c][1,2,4]thiadiazine 2,2-dioxide]",
,65,"O=S1(=O)CCN2C=CC=C(c3ccc(OCc4cccc(F)c4)cc3)C2=N1 [Example 82, 9-{4-[(3-fluorobenzyl)oxy]phenyl}-3,4-dihydropyrido[2,1-c][1,2,4]thiadiazine 2,2-dioxide]",
,75,"O=S1(=O)CCN2C=CC=C(c3ccc(OC4CCCCCC4)cc3)C2=N1 [Example 88, 9-[4-(cycloheptyloxy)phenyl]-3,4-dihydropyrido[2,1-c][1,2,4]thiadiazine 2,2-dioxide]",
,83,"O=S1(=O)CCN2C=CC=C(c3ccc(N4CCOCC4)cc3)C2=N1 [Example 397, 9-(4-morpholin-4-ylphenyl)-3,4-dihydropyrido[2,1-c][1,2,4]thiadiazine 2,2-dioxide]",
79,,"O=S1(=O)CCN2C=CC=C(c3ccc(Oc4ccccc4)cn3)C2=N1 [Example 258, 9-(5-phenoxypyridin-2-yl)-3,4-dihydropyrido[2,1-c][1,2,4]thiadiazine 2,2-dioxide]",
,63,"Cc1ccc(Cc2ccc(C3CCCN4CCS(=O)(=O)N=C34)cc2)cc1 (stereo not drawn) [Example 324, 9-[4-(4-methylbenzyl)phenyl]-3,4,6,7,8,9-hexahydropyrido[2,1-c][1,2,4]thiadiazine 2,2-dioxide]",
70,,"CC1=CN2CCS(=O)(=O)N=C2C(c2ccc(OC3CCCCC3)cc2)=N1 [Example 180, 9-[4-(cyclohexyloxy)phenyl]-7-methyl-3,4-dihydropyrazino[2,1-c][1,2,4]thiadiazine 2,2-dioxide]",
,86,"O=S1(=O)CCN2C=CC=C(c3ccc(OC4CC4)cc3)C2=N1 [Example 70, 9-[4-(cyclopropyloxy)phenyl]-3,4-dihydropyrido[2,1-c][1,2,4]thiadiazine 2,2-dioxide]",

"activity (%) [1, 2] [%]","activity (%) [1, 3] [%]",SMILES,further results
68,,"CC1CC(c2ccc(Oc3cccc(C(C)(F)F)c3)cc2)C2=NS(=O)(=O)CCN2C1 (racemic) [Example 173, 9-{4-[3-(1,1-difluoroethyl)phenoxy]phenyl}-7-methyl-3,4,6,7,8,9-hexahydropyrido[2,1-c][1,2,4]thiadiazine 2,2-dioxide]",
,72,"COc1ccc2cc(C3=CC=CN4CCS(=O)(=O)N=C34)ccc2c1 [Example 126, 9-(6-methoxynaphthalen-2-yl)-3,4-dihydropyrido[2,1-c][1,2,4]thiadiazine 2,2-dioxide]",
77,,"O=S1(=O)CCN2CCC[C@@H](c3ccc(Oc4ccc(Cl)cc4)cc3)C2=N1 [Example 149, (9S)-9-[4-(4-chlorophenoxy)phenyl]-3,4,6,7,8,9-hexahydropyrido[2,1-c][1,2,4]thiadiazine 2,2-dioxide]",
,67,"O=S1(=O)CCN2CCCC(c3ccc(Oc4ccccc4C(F)(F)F)cc3)C2=N1 (stereo not drawn) [Example 86, 9-{4-[2-(trifluoromethyl)phenoxy]phenyl}-3,4,6,7,8,9-hexahydropyrido[2,1-c][1,2,4]thiadiazine 2,2-dioxide]",
84,,"O=S1(=O)CCN2C=CC=C(c3ccc(Oc4ccccc4C(F)(F)F)cc3)C2=N1 [Example 266, 9-{4-[2-(trifluoromethyl)phenoxy]phenyl}-3,4-dihydropyrido[2,1-c][1,2,4]thiadiazine 2,2-dioxide]",
,89,"COc1cc(Oc2ccc(C3=CC=CN4CCS(=O)(=O)N=C34)cc2)ccc1F [Example 316, 9-[4-(4-fluoro-3-methoxyphenoxy)phenyl]-3,4-dihydropyrido[2,1-c][1,2,4]thiadiazine 2,2-dioxide]",
,85,"O=C(Nc1ccc(C2CC2)cc1)C1=CC=CN2CCS(=O)(=O)N=C12 [Example 4, N-(4-cyclopropylphenyl)-3,4-dihydropyrido[2,1-c][1,2,4]thiadiazine-9-carboxamide 2,2-dioxide]",
,57,"Cc1cc(C(F)(F)F)ccc1Oc1ccc(C2CCCN3CCS(=O)(=O)N=C23)cc1 (stereo not drawn) [Example 123, 9-{4-[2-methyl-4-(trifluoromethyl)phenoxy]phenyl}-3,4,6,7,8,9-hexahydropyrido[2,1-c][1,2,4]thiadiazine 2,2-dioxide]",
,66,"CCC(C)c1ccc(NC(=O)C2=NC=CN3CCS(=O)(=O)N=C23)cc1 (stereo not drawn) [Example 1, N-[4-(1-methylpropyl)phenyl]-3,4-dihydropyrazino[2,1-c][1,2,4]thiadiazine-9-carboxamide 2,2-dioxide]",
82,,"O=S1(=O)CCN2C=CN=C(c3ccc(Oc4ccccc4)cc3)C2=N1 [Example 210, 9-(4-phenoxyphenyl)-3,4-dihydropyrazino[2,1-c][1,2,4]thiadiazine 2,2-dioxide]",
,79,"COc1ccc2cc(C3CCCN4CCS(=O)(=O)N=C34)ccc2c1 (stereo not drawn) [Example 127, 9-(6-methoxynaphthalen-2-yl)-3,4,6,7,8,9-hexahydropyrido[2,1-c][1,2,4]thiadiazine 2,2-dioxide]",
,78,"Cc1nc2cc(OC3=CC=CN4CCS(=O)(=O)N=C34)ccc2s1 [Example 24, 9-[(2-methyl-1,3-benzothiazol-5-yl)oxy]-3,4-dihydropyrido[2,1-c][1,2,4]thiadiazine 2,2-dioxide]",
,81,"O=S1(=O)CCN2C=CC=C(c3ccc(OC4CCC4)cc3)C2=N1 [Example 91, 9-[4-(cyclobutyloxy)phenyl]-3,4-dihydropyrido[2,1-c][1,2,4]thiadiazine 2,2-dioxide]",
59,,"CC(F)(F)c1ccc(C2CCCN3CCS(=O)(=O)N=C23)cc1 (stereo not drawn) [Example 230, 9-[4-(1,1-difluoroethyl)phenyl]-3,4,6,7,8,9-hexahydropyrido[2,1-c][1,2,4]thiadiazine 2,2-dioxide]",
76,,"CC(F)(F)c1cccc(Oc2ccc(C3CCCN4CCS(=O)(=O)N=C34)cc2)c1 (stereo not drawn) [Example 158, 9-{4-[3-(1,1-difluoroethyl)phenoxy]phenyl}-3,4,6,7,8,9-hexahydropyrido[2,1-c][1,2,4]thiadiazine 2,2-dioxide]",
56,,"O=S1(=O)CCN2C=CC=C(c3ccc(C(F)(F)c4ccccc4)cc3)C2=N1 [Example 162, 9-{4-[difluoro(phenyl)methyl]phenyl}-3,4-dihydropyrido[2,1-c][1,2,4]thiadiazine 2,2-dioxide]",
,77,"Cc1ccc(Oc2ccc(C3=CC=CN4CCS(=O)(=O)N=C34)cc2)cc1C [Example 134, 9-[4-(3,4-dimethylphenoxy)phenyl]-3,4-dihydropyrido[2,1-c][1,2,4]thiadiazine 2,2-dioxide]",
,85,"CC(C)Oc1ccc(C2=CC=CN3CCS(=O)(=O)N=C23)cc1F [Example 361, 9-[3-fluoro-4-(1-methylethoxy)phenyl]-3,4-dihydropyrido[2,1-c][1,2,4]thiadiazine 2,2-dioxide]",
